These results are taken from US20260224688A1, “HELPER LIPIDS FOR NUCLEIC ACID DELIVERY” (SANOFI PASTEUR INC., priority 2023, published 2026).

Series [1] is described as follows: Dynamic light scattering of lipid nanoparticles (size, PDI). The series is classed as physicochemical. How it is done: (§1) Lipid nanoparticle formulations 3 were prepared by Process A at a molar ratio of 40:1.5:30:28.5 (Cationic Lipid: DMG-PEG2000: Cholesterol: Helper Lipid) with the cationic lipids and helper lipids disclosed in the tables below. The Polydispersity Index (Pdl) of lipid nanoparticles can be determined by diluting the formulation in 10% trehalose at about 0.1 mg/ml mRNA concentration and then measuring the size on Malvern zetasizer. The lipid nanoparticle size can be obtained with Malvern Zetasizer Nano-ZS.
Dynamic light scattering (DLS) measurements were performed using a Malvern Instruments Zetasizer with a backscattering detector angle of 173° and a 4-mW, 633-nm He—Ne laser (Worcestershire, UK). The samples were analyzed by diluting in 10% Trehalose and measuring the size and Poly dispersity Index (PDI) in an optical grade polystyrene cuvette.

Series [2] relates to hEPO. Briefly: IV EPO expression of LNPs (tail vein injection). As to conditions: cationic lipid CL-0137, helper lipid 30 mol %; 0.017 μg EPO mRNA tail vein; 6 hours; DOPE = 1. It is filed as in vivo, female BALB/cJ mice. How it is done: Lipid nanoparticles were formulated containing the four lipid components shown below at a ratio of 40:30:28.5:1.5, complexed with a hEPO messenger RNA. • Cationic lipid CL-0137, 40 mol % • Helper lipid, 30 mol % • Cholesterol, 28.5 mol % • DMG-PEG-2K (1,2-dimyristoyl-rac-glycero-3-methoxypolyethyleneglycol), 1.5 mol %
EPO expression studies were conducted with female BALB/cJ mice 6-8 weeks of age. Mice were dosed with 0.017 μg EPO mRNA LNPs in a volume of 5 ul by a single tail vein injection. Blood samples were taken 6 hours post injection and hEPO levels were measured in the blood serum of the mice using an ELISA assay according to the manufacture's protocol.

Series [3] can be described thus: mRNA encapsulation efficiency of lipid nanoparticles. The series is classed as physicochemical. As to conditions: for Encapsulation efficiency (EE): LNP with cationic lipid CL-A.
Excerpt: In embodiments, the lipid nanoparticle encapsulates a nucleic acid, optionally an mRNA encoding a peptide or protein. In embodiments, the lipid nanoparticle encapsulates an mRNA encoding a peptide or protein, optionally for use in a vaccine. In embodiments, the peptide is an antigen. As used herein, the phrase “encapsulation percentage” refers to the fraction of therapeutic agent (e.g. mRNA) that is effectively encapsulated within a liposomal-based vehicle (e.g. a lipid nanoparticle) relative to the initial fraction of therapeutic agent present in the lipid phase. In embodiments, the lipid nanoparticles have an encapsulation percentage for mRNA of at least 50%. In embodiments, the lipid nanoparticles have an encapsulation percentage for mRNA of at least 55%. In embodiments, the lipid nanoparticles have an encapsulation percentage for mRNA of at least 60%. In embodiments, the lipid nanoparticles have an encapsulation percentage for mRNA of at least 65%. In embodiments, the lipid nanoparticles have an encapsulation percentage for mRNA of at least 70%. In embodiments, the lipid nanoparticles have an encapsulation percentage for mRNA of at least 75%. In embodiments, the lipid nanoparticles have an encapsulation percentage for mRNA of at least 80%. In embodiments, the lipid nanoparticles have an encapsulation percentage for mRNA of at least 85%. In embodiments, the lipid nanoparticles have an encapsulation percentage for mRNA of at least 90%. In embodiments, the lipid nanoparticles have an encapsulation percentage for mRNA of at least 95%. In embodiments, the encapsulation percentage is calculated by performing the Ribogreen assay (Invitrogen) with and without the presence of 0.1% Triton-X 100.
The lipid nanoparticles in the examples of the present invention were formulated using Process A of WO 2018/089801 (see, e.g., Example 1 and FIG. 1 of WO 2018/089801). Process A (“A”) relates to a conventional method of encapsulating mRNA by mixing mRNA with a mixture of lipids, without first pre-forming the lipids into lipid nanoparticles. In an exemplary process, an ethanolic solution of a mixture of lipids (cationic lipid, phosphatidylethanolamine, cholesterol, and polyethylene glycol-lipid) at a fixed lipid to mRNA ratio were combined with an aqueous buffered solution of target mRNA at an acidic pH under controlled conditions to yield a suspension of uniform LNPs. After ultrafiltration and diafiltration into a suitable diluent system, the resulting nanoparticle suspensions were diluted to final concentration, filtered, and stored frozen at −80° C. until use.
as §1

Series [4] deals with hEPO. Briefly: IM EPO expression of LNPs containing new helper lipids (hEPO in serum by ELISA). The series is classed as in vivo, female BALB/cJ mice. As to conditions: single IM injection; for 24-h EPO: serum 24 hours post injection. How it is done:
Lipid nanoparticles were formulated containing the four lipid components shown below at a ratio of 40:30:28.5:1.5, complexed with a hEPO messenger RNA. • Cationic lipid, 40 mol % • Phospholipid (PEA) helper lipid, 30 mol % • Cholesterol, 28.5 mol % • DMG-PEG-2K (1,2-dimyristoyl-rac-glycero-3-methoxypolyethyleneglycol), 1.5 mol % The cationic lipid component of each formulation was selected from the compounds in the table below: […]
EPO expression studies were conducted with female BALB/cJ mice 6-8 weeks of age. Mice were dosed with […] EPO mRNA in 30 μL of LNPs by a single intramuscular (IM) injection into the gastrocnemius leg muscle. Blood samples were taken 6 and 24 hours post injection and hEPO levels were measured in the blood serum of the mice using an ELISA assay according to the manufacture's protocol. WO2022/099003 A1 also describes an in vivo assay for intramuscular administration (e.g. on page 46, paragraph [00206]).
Background: ELISA stands for enzyme-linked immunosorbent assay.

Setting [5] is: LNP with cationic lipid CL-A, hEPO mRNA, 40:30:28.5:1.5.
Setting [6] is: CL-B LNP, serum 6 hours post injection.

Structures are written as SMILES.

In the case of `CCCCCCCCC(CCCCCCCC)OC(=O)CCCCCCC(=O)OCC(COP(=O)(O)OCCN)OC(=O)CCCCCCC(=O)OC(CCCCCCCC)CCCCCCCC` (stereo not shown) [Compound 6, 2-Aminoethyl (2,3-bis((8-(heptadecan-9-yloxy)-8-oxooctanoyl)oxy)propyl) phosphate], the “Polydispersity Index (PDI)” value in series [1] (LNP with cationic lipid CL-A) was 0.066. In addition, the Size was found to be 159 nm in series [1] (setting [5]), 119.9 nm in series [1] (LNP with cationic lipid CL-B), 108.9 nm in series [1] (LNP with cationic lipid CL-C) and 131.5 nm in series [1] (LNP with cationic lipid CL-D). For the same molecule, the PDI in series [1] (LNP with cationic lipid CL-B) was 0.049; in series [1] (LNP with cationic lipid CL-C), 0.037; in series [1] (LNP with cationic lipid CL-D), 0.063. The “Normalized Mean IV EPO expression” value with hEPO [2] turned out to be 2.67. The “Encapsulation efficiency (EE)” value in series [3] is listed as 90%. Moreover, the EE in series [3] (LNP with cationic lipid CL-B), in series [3] (LNP with cationic lipid CL-C) and in series [3] (LNP with cationic lipid CL-D) was 94% each time. In addition, the “6-h EPO” value in the series on hEPO [4] (setting [6]) is reported as 28.4 ng/mL; in the series with hEPO [4] (CL-C LNP) it was 27.1 ng/mL; in the series on hEPO [4] (CL-C LNP, (6-h)), 39.9 ng/mL. Also, the “24-h EPO” value with hEPO [4] (CL-B LNP) worked out at 16.2 ng/mL.
Consider `CCCCCCCCOC(=O)CCCCCCCC(=O)OCC(COP(=O)(O)OCCN(C)C)OC(=O)CCCCCCCC(=O)OCCCCCCCC` (stereo not shown) [Compound 7, O′^1,O^1-(3-(((2-(Dimethylamino)ethoxy)(hydroxy)phosphoryl)oxy)-propane-1,2-diyl) 9-dioctyl di(nonanedioate)], for which the “Polydispersity Index (PDI)” value in series [1] (LNP with cationic lipid CL-A) turned out to be 0.09. The Size in series [1] (setting [5]) was found to be 120 nm; in series [1] (LNP with cationic lipid CL-B), 88.2 nm; in series [1] (LNP with cationic lipid CL-C), 87.4 nm; in series [1] (LNP with cationic lipid CL-D) it was 121.9 nm. The PDI was determined as 0.111 in series [1] (LNP with cationic lipid CL-B), 0.099 in series [1] (LNP with cationic lipid CL-C) and 0.089 in series [1] (LNP with cationic lipid CL-D). In the series on hEPO [2], the “Normalized Mean IV EPO expression” value is reported as 0.52. Moreover, the “Encapsulation efficiency (EE)” value in series [3] was 88%. Besides, the figures for the EE in series [3] (LNP with cationic lipid CL-B), in series [3] (LNP with cationic lipid CL-C) and in series [3] (LNP with cationic lipid CL-D) were 92%, 92% and 85%, respectively. Moreover, the “6-h EPO” value is 3.7 ng/mL in the series on hEPO [4] (setting [6]); 2.6 ng/mL in the series on hEPO [4] (CL-C LNP); 5.5 ng/mL with hEPO [4] (CL-C LNP, (6-h)). For the same molecule, the “24-h EPO” value in the series with hEPO [4] (CL-B LNP) was found to be 1.4 ng/mL.
In the case of `CC(C)CCCCOC(=O)CCCCCCC(=O)OCC(COP(=O)(O)OCCN(C)C)OC(=O)CCCCCCC(=O)OCCCCC(C)C` (stereo not shown) [Compound 8, O′^1,O^1-(3-(((2-(Dimethylamino)ethoxy)(hydroxy)phosphoryl)-oxy)propane-1,2-diyl) 8-bis(5-methylhexyl) di(octanedioate)], the “Polydispersity Index (PDI)” value in series [1] (LNP with cationic lipid CL-A) was found to be 0.06. Further, the Size is recorded as 116 nm in series [1] (setting [5]), 92.3 nm in series [1] (LNP with cationic lipid CL-B), 91.1 nm in series [1] (LNP with cationic lipid CL-C) and 151.4 nm in series [1] (LNP with cationic lipid CL-D). The values for the PDI in series [1] (LNP with cationic lipid CL-B), in series [1] (LNP with cationic lipid CL-C) and in series [1] (LNP with cationic lipid CL-D) were 0.146, 0.102 and 0.061, respectively. Further, in the series with hEPO [2], the “Normalized Mean IV EPO expression” value was found to be 0.29. For the same molecule, the “Encapsulation efficiency (EE)” value in series [3] is on record as 89%. The EE in series [3] (LNP with cationic lipid CL-B) stood at 18%; in series [3] (LNP with cationic lipid CL-C), 87%; in series [3] (LNP with cationic lipid CL-D), 28%. Moreover, the “6-h EPO” value in the series with hEPO [4] (CL-C LNP) was determined as 0.5 ng/mL; in the series on hEPO [4] (CL-C LNP, (6-h)) it was 1.4 ng/mL.
`CCCCCCCCCC(CCCCCCCCC)C(=O)OCC(COP(=O)(O)OCCN(C)C)OC(=O)C(CCCCCCCCC)CCCCCCCCC` (stereo not shown) [Compound 9, 3-(((2 (Dimethylamino)ethoxy)(hydroxy)phosphoryl)oxy)-propane-1,2-diyl bis(2-nonylundecanoate)]: the “Polydispersity Index (PDI)” value in series [1] (LNP with cationic lipid CL-A) came out at 0.126. Moreover, the Size is recorded as 112 nm in series [1] (setting [5]), 108.2 nm in series [1] (LNP with cationic lipid CL-B) and 110.1 nm in series [1] (LNP with cationic lipid CL-C). The results for the PDI in series [1] (LNP with cationic lipid CL-B) and in series [1] (LNP with cationic lipid CL-C) were 0.113 and 0.087, respectively. Moreover, the “Normalized Mean IV EPO expression” value in the series on hEPO [2] is 3.68. Further, in series [3], the “Encapsulation efficiency (EE)” value turned out to be 84%. Moreover, the EE in series [3] (LNP with cationic lipid CL-B) and in series [3] (LNP with cationic lipid CL-C) was 78% throughout. The “6-h EPO” value in the series on hEPO [4] (setting [6]) is listed as 5.6 ng/mL; in the series on hEPO [4] (CL-C LNP), 12.2 ng/mL; in the series with hEPO [4] (CL-C LNP, (6-h)), 22.3 ng/mL. The “24-h EPO” value with hEPO [4] (CL-B LNP) is recorded as 3.3 ng/mL.
Turning to `CCCCCCCCC(CCCCC)COC(=O)CCC(=O)OCC(COP(=O)(O)OCCN(C)C)OC(=O)CCC(=O)OCC(CCCCC)CCCCCCCC` (stereo not shown) [Compound 10, O,O′-(3-(((2-(Dimethylamino)ethoxy)(hydroxy)phosphoryl)-oxy)propane-1,2-diyl) bis(2-pentyldecyl) disuccinate)], the “Polydispersity Index (PDI)” value in series [1] (LNP with cationic lipid CL-A) came to 0.046. In addition, the Size came out at 171 nm in series [1] (setting [5]), 95.9 nm in series [1] (LNP with cationic lipid CL-B), 89.3 nm in series [1] (LNP with cationic lipid CL-C) and 100.5 nm in series [1] (LNP with cationic lipid CL-D). Also, the PDI in series [1] (LNP with cationic lipid CL-B) was 0.086; in series [1] (LNP with cationic lipid CL-C), 0.022; in series [1] (LNP with cationic lipid CL-D) it was 0.129. In addition, in the series with hEPO [2], the “Normalized Mean IV EPO expression” value was 1.72. In series [3], the “Encapsulation efficiency (EE)” value is 90%. The EE in series [3] (LNP with cationic lipid CL-B) is 83%; in series [3] (LNP with cationic lipid CL-C), 84%; in series [3] (LNP with cationic lipid CL-D), 93%. The “6-h EPO” value in the series with hEPO [4] (CL-A LNP, 0.1 μg EPO mRNA in 30 μL, serum 6 hours post injection) came out at 20.227 ng/mL; in the series on hEPO [4] (setting [6]), 12.9 ng/mL; in the series on hEPO [4] (CL-C LNP), 10.3 ng/mL; with hEPO [4] (CL-C LNP, (6-h)), 14.8 ng/mL. Also, the “24-h EPO” value in the series with hEPO [4] (CL-A LNP) is given as 10.447 ng/mL; in the series with hEPO [4] (CL-B LNP), 10.4 ng/mL.
